# Calls of active or inactive are those of the source. No cut-off for these calls is given here.
# Assays:
# U-937 [1] = assay: Induction of apoptosis in human U-937 cells assessed as early apoptotic cells at 0.5 uM incubated for 48 hrs by Annexin V-FITC/PI staining based flow cytometry (reference value: 2.72 %); type: functional
# U-937 [2] = assay: Downregulation of c-Myc expression in human U-937 cells incubated for 48 hrs by Western blot analysis; type: functional, cell-based; settings: dose 1-5 µM
# [3] = target: Signal transducer and activator of transcription 3 (Homo sapiens) (UniProt P40763); assay: Inhibition of STAT3 phosphorylation in human U-937 cells at 1 to 5 uM incubated for 48 hrs by Western blot analysis; type: cell-based; settings: dose 1-5 µM
# Chain of Signal transducer and activator of transcription 3 (Homo sapiens) (P40763 whole entry): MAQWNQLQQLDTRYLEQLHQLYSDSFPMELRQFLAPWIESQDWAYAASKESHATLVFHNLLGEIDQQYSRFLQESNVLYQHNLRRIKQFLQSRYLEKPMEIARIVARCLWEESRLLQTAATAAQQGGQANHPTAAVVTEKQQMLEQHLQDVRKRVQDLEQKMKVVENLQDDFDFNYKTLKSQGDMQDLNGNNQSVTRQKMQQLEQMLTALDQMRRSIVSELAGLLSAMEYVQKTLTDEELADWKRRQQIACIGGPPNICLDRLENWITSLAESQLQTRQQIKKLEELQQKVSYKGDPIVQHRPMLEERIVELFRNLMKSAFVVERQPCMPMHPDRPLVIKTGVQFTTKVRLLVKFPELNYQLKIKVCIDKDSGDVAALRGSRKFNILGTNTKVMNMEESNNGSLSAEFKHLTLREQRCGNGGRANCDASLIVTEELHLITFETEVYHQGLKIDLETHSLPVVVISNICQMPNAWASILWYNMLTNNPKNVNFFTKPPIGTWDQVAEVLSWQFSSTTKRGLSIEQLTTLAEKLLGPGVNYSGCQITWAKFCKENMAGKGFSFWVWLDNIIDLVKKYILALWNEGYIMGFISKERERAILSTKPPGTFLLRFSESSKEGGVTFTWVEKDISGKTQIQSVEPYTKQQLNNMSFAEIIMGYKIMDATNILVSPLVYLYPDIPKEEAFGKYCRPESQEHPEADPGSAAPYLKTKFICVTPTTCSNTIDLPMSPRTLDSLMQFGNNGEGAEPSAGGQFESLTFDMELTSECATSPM
# SK-OV-3 = assay: Antiproliferative activity against human SK-OV-3 cells assessed as inhibition of cell growth incubated for 72 hrs by MTT assay; type: functional, cell-based; settings: SK-OV-3, 72 h
# [4] = Antiproliferative activity against human SK-OV-3/Taxol cells assessed as inhibition of cell growth incubated for 72 hrs by MTT assay; type: functional, cell-based; settings: SK-OV-3, 72 h
# U-937 [5] = assay: Induction of apoptosis in human U-937 cells assessed as necrotic cells at 0.5 uM incubated for 48 hrs by Annexin V-FITC/PI staining based flow cytometry (reference value: 2.03 %); type: functional
# KG-1 = assay: Antiproliferative activity against human KG-1 cells assessed as inhibition of cell growth incubated for 72 hrs by MTT assay; type: functional, cell-based; settings: KG-1, 72 h
# THP-1 = assay: Antiproliferative activity against human THP-1 cells assessed as inhibition of cell growth incubated for 72 hrs by MTT assay; type: functional, cell-based; settings: THP-1, 72 h
# U-937 [6] = assay: Induction of apoptosis in human U-937 cells assessed as necrotic cells at 1 uM incubated for 48 hrs by Annexin V-FITC/PI staining based flow cytometry (reference value: 2.03 %); type: functional
# U-937 [7] = assay: Induction of apoptosis in human U-937 cells assessed as viable cells at 2.5 uM incubated for 48 hrs by Annexin V-FITC/PI staining based flow cytometry (reference value: 93.30 %); type: functional; settings: read-out: Activity
# U-937 [8] = assay: Induction of apoptosis in human U-937 cells assessed as late apoptotic cells at 0.5 uM incubated for 48 hrs by Annexin V-FITC/PI staining based flow cytometry (reference value: 1.96 %); type: functional
# U-937 [9] = assay: Antiproliferative activity against human U-937 cells assessed as inhibition of cell growth incubated for 72 hrs by MTT assay; type: functional, cell-based; settings: U-937, 72 h
# U-937 [10] = assay: Induction of apoptosis in human U-937 cells assessed as early apoptotic cells at 2.5 uM incubated for 48 hrs by Annexin V-FITC/PI staining based flow cytometry (reference value: 2.72 %); type: functional
# U-937 [11] = assay: Induction of apoptosis in human U-937 cells assessed as viable cells at 1 uM incubated for 48 hrs by Annexin V-FITC/PI staining based flow cytometry (reference value: 93.30 %); type: functional; settings: read-out: Activity
# U-937 [12] = assay: Downregulation of XIAP expression in human U-937 cells incubated for 48 hrs by Western blot analysis; type: functional, cell-based
# U-937 [13] = assay: Induction of apoptosis in human U-937 cells assessed as change in mitochondrial membrane potential at 1 uM incubated for 48 hrs by JC-1 staining based flow cytometry (reference value: 2.20 %); type: functional
# U-937 [14] = assay: Induction of apoptosis in human U-937 cells assessed as necrotic cells at 2.5 uM incubated for 48 hrs by Annexin V-FITC/PI staining based flow cytometry (reference value: 2.03 %); type: functional
# U-937 [15] = assay: Induction of apoptosis in human U-937 cells assessed as change in mitochondrial membrane potential at 2.5 uM incubated for 48 hrs by JC-1 staining based flow cytometry (reference value: 2.20 %); type: functional
# U-937 [16] = assay: Downregulation of Bcl-XL expression in human U-937 cells incubated for 48 hrs by Western blot analysis; type: functional, cell-based; settings: dose 1-5 µM
# U-937 [17] = assay: Induction of apoptosis in human U-937 cells assessed as late apoptotic cells at 1 uM incubated for 48 hrs by Annexin V-FITC/PI staining based flow cytometry (reference value: 1.96 %); type: functional
# U-937 [18] = assay: Induction of apoptosis in human U-937 cells assessed as change in mitochondrial membrane potential at 5 uM incubated for 48 hrs by JC-1 staining based flow cytometry (reference value: 2.20 %); type: functional
# U-937 [19] = assay: Induction of apoptosis in human U-937 cells assessed as early apoptotic cells at 1 uM incubated for 48 hrs by Annexin V-FITC/PI staining based flow cytometry (reference value: 2.72 %); type: functional
# U-937 [20] = assay: Upregulation of p21 expression in human U-937 cells incubated for 48 hrs by Western blot analysis; type: functional, cell-based
# U-937 [21] = assay: Downregulation of Bcl-2 expression in human U-937 cells incubated for 48 hrs by Western blot analysis; type: functional, cell-based
# U-937 [22] = assay: Induction of apoptosis in human U-937 cells assessed as viable cells at 0.5 uM incubated for 48 hrs by Annexin V-FITC/PI staining based flow cytometry (reference value: 93.30 %); type: functional; settings: read-out: Activity
# U-937 [23] = assay: Induction of apoptosis in human U-937 cells assessed as late apoptotic cells at 2.5 uM incubated for 48 hrs by Annexin V-FITC/PI staining based flow cytometry (reference value: 1.96 %); type: functional
# U-937 [24] = assay: Downregulation of YAP1 expression in human U-937 cells incubated for 48 hrs by Western blot analysis; type: functional, cell-based; settings: dose 1-5 µM
smiles,measurement,setting,value
CCc1nccnc1C(=O)/C=C/c1ccc(C#N)cc1,Activity,U-937 [1],8.17%
same,Activity,U-937 [2],Dose-dependent-effect
same,inhibition,[3],Active
same,IC50,SK-OV-3,4.71 µM
same,IC50,[4],5.39 µM
same,Activity,U-937 [5],2.84%
same,IC50,KG-1,3.98 µM
same,IC50,THP-1,0.64 µM
same,Activity,U-937 [6],2.6%
same,viability at 2.5 µM,U-937 [7],74.2%
same,Activity,U-937 [8],6.11%
same,IC50,U-937 [9],0.18 µM
same,Activity,U-937 [10],14.57%
same,viability at 1 µM,U-937 [11],80.3%
same,Activity,U-937 [12],Dose-dependent-effect
same,Activity,U-937 [13],3.69%
same,Activity,U-937 [14],3.82%
same,Activity,U-937 [15],6.16%
same,Activity,U-937 [16],Dose-dependent-effect
same,Activity,U-937 [17],6.74%
same,Activity,U-937 [18],14.12%
same,Activity,U-937 [19],10.41%
same,Activity,U-937 [20],Dose-dependent-effect
same,Activity,U-937 [21],Dose-dependent-effect
same,viability at 0.5 µM,U-937 [22],82.9%
same,Activity,U-937 [23],7.46%
same,Activity,U-937 [24],Dose-dependent-effect
CCc1nccnc1C(=O)/C=C/c1ccccc1Cl,IC50,SK-OV-3,5.06 µM
same,IC50,[4],5.58 µM
same,IC50,KG-1,3.17 µM
same,IC50,THP-1,4.45 µM
same,IC50,U-937 [9],5.91 µM

# From ChEMBL document CHEMBL6114992, “Design, synthesis, biological evaluation, and mechanism of action of new pyrazines as anticancer agents in vitro and in vivo” (Bioorg Med Chem, 2025)
